According to patent publication US4248884A, “2-Pyrrolidine methanol derivatives utilizable as medicaments” (Pharmindustrie, priority 1978, dated 1981):
Read-outs that look alike come from different tables or passages of the source.

Key:
serum triglycerides = assay: Hypotriglyceridemiant activity: olive oil induced experimental hypertriglyceridemia in fasting rats; assay type: in vivo, male rats
Description: Journal of Pharmacology, 1973, 23, 131, the disclosure of which is incorporated herein by reference.
The rats are killed two hours after the administration of the oil by decapitation. The serum is separated by centrifuging and the triglycerides are determined on an amount of 0.2 ml of serum by extraction with a heptane-isopropanol mixture and colorimetry according to the method of Van Handel et al., J. Lab. and Clin. Med., 1957, 50, 152-157, by using an assembly of analytical reagents known commercially as "Triclycerides-kit Bio Merieux".

[1] = tested on: reserpine induced hypothermia (central nervous system); assay: Action on the central nervous system: reserpine induced hypothermia in mice; assay type: in vivo; conditions: Mus musculus, oral, read-out: DE50 oral (dose exerting an antihypothermic effect equal to 50% of that caused by 15 mg/kg oral imipramine)
Description: The activity of the products on the central nervous system has been shown by the test of reserpine induced hypothermia in mice, according to the method of D. M. Asken, Life Sciences, 1963, vol. 2, p. 725, the disclosure of which is incorporated herein by reference,
The results are expressed by a DE50 or dose of product, in mg/kg, capable of exerting an antihypothermic effect equal to 50% of the antihypothermic effect caused by 15 mg/kg (oral) of imipramine.

[2] = Acute toxicity by oral administration; conditions: in vivo; male mouse CD1, oral, after three days of observation
From the text: The acute toxicities of the compounds according to the invention have been determined on the male mouse CD1 (Charles River) by oral administration. The LD50 have been calculated, after three days of observation, by the cumulative method of J. J. Reed et al. (Am. J. Hyg., 1938, 27, 493), the disclosure of which is incorporated herein by reference.

[3] = Rattus norvegicus, po, read-out: % of inhibition (relative reduction of the proportion of serum triglycerides with respect to control animals)
[4] = rat, oral, 100 mg/kg, 2 h before 20 ml/kg olive oil, Student Fischer T test 0.01, read-out: % of inhibition (relative reduction of the proportion of serum triglycerides with respect to control animals)

Compound | ED50 [1] [mg/kg] | LD50 at 72 h [2] [mg/kg] | other results
O[C@H](c1ccccc1)[C@@H]1CCCN1 (relative stereo) [Example 1, α-phenyl-2-pyrrolidine-methanol (erythro isomer)] | 4.5 | – | inhibition at 50 mg/kg (serum triglycerides; [3]): 33%
O[C@H](c1ccccc1)[C@H]1CCCN1 (relative stereo) [Example 2, α-phenyl-2-pyrrolidine methanol (threo isomer)] | > 150 | 600 | inhibition at 6.25 mg/kg (serum triglycerides; [3]): 41%; inhibition at 50 mg/kg (serum triglycerides; [3]): 45%; hypotriglyceridemiant activity (in words) (serum triglycerides; rat, oral, Example 2 at 6.25 mg/kg): still very active
O[C@H](c1ccccc1)[C@H]1CCCN1Cc1ccccc1 (relative stereo) [Example 3, α-phenyl-2-(1-benzyl-pyrrolidine) methanol (threo isomer)] | – | 270 | –
CN1CCC[C@@H]1[C@H](O)c1ccccc1 (relative stereo) [Example 4, α-phenyl-2-(1-methyl-pyrrolidine)methanol (threo isomer)] | – | 800 | –
OCCN1CCC[C@@H]1[C@H](O)c1ccccc1 (relative stereo) [Example 5, α-phenyl-2-(1-β-hydroxyethyl-pyrrolidine)methanol(threo isomer)] | – | 675 | inhibition at 100 mg/kg (serum triglycerides; [4]): 45%
O[C@H](c1ccc(Cl)cc1)[C@@H]1CCCN1 (relative stereo) [Example 6, α-(4-chloro-phenyl)-2-pyrrolidine methanol (erythro isomer)] | 18 | 675 | –
O[C@H](c1ccc(Cl)cc1)[C@H]1CCCN1 (relative stereo) [Example 7, α-(4-chloro-phenyl)-2-pyrrolidine methanol (threo isomer)] | > 50 | 400 | inhibition at 100 mg/kg (serum triglycerides; [4]): 41%
O[C@H](c1ccc(C2CCCCC2)cc1)[C@@H]1CCCN1 (relative stereo) [Example 8, α-(4-cyclohexyl-phenyl)-2-pyrrolidine methanol (erythro isomer)] | – | > 900 | –
CC(C)(C)c1ccc([C@@H](O)[C@@H]2CCCN2)cc1 (relative stereo) [Example 10, α-(4-tertiobutyl-phenyl)-2-pyrrolidine methanol (erythro isomer)] | – | 600 | –
O=C(O)c1cccnc1 [Nictotinic acid, nicotinic acid, reference compound] | – | – | inhibition at 100 mg/kg (serum triglycerides; [3]): 50%
